In US9499519B2, “Fused pyrimidine compounds and use thereof” (Medivation Technologies, Inc., priority 2012, dated 2016):

Experiments:
AXL = target: T1, AXL (Homo sapiens, UniProt P30530); test: HotSpot kinase assay: AXL; assay type: biochemical; conditions: 100 nM compound, read-out: % Enzyme Inhibition @ 100 nM AXL
T1 sequence (P30530 26-894): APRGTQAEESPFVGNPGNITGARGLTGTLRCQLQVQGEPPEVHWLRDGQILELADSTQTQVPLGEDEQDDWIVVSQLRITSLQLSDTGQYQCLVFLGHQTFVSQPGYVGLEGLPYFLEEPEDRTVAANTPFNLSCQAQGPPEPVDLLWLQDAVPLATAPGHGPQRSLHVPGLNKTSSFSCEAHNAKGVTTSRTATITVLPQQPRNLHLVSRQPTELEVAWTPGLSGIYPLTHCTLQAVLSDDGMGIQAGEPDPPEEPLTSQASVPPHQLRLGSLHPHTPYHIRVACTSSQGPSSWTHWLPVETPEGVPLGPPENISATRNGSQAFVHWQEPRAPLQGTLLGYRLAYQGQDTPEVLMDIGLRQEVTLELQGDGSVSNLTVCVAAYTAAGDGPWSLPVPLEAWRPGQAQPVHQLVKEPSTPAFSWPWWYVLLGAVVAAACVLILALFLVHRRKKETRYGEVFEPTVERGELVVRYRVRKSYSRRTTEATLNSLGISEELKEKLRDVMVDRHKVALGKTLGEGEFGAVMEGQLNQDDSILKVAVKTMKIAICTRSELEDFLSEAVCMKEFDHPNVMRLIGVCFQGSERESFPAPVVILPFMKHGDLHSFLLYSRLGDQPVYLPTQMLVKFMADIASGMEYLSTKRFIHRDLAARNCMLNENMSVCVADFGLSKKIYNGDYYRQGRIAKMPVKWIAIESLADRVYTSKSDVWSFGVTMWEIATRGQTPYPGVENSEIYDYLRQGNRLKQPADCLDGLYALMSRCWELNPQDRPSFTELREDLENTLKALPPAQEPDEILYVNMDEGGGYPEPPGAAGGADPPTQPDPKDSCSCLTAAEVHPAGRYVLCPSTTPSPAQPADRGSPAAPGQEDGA
Description: (§1) Kinase assays were performed using additional compounds against a panel of 4 kinases: AXL; c-Met; c-Mer; and Trk C. Each compound was tested at a concentration of 0.1 M in single duplicate mode against the 4 kinases. Compounds were prepared as 10 mM stock solutions in DMSO prior to use in the assay. […] IC50 values and curve fits were obtained using Prism (GraphPad Software).
The screening was performed using the “HotSpot” assay platform. The assay measures the conversion of a peptide substrate to ^33P-labelled phosphorylated product. Briefly, specific kinase/substrate pairs along with required cofactors were prepared in reaction buffer. Specifically, the substrate was prepared in reaction buffer (20 mM Hepes, pH 7.5; 10 mM MgCl2; 1 mM EGTA; 0.02% Brij35; 0.02 mg/mL BSA; 0.1 mM Na3VO4; 2 mM DTT; 1% DMSO), followed by delivery of any required cofactor to the resulting substrate solution. The corresponding kinase was delivered into the substrate solution and the reaction mixture was mixed gently. Compound was delivered into the reaction mixture, followed 15-20 minutes later by addition of a mixture of ATP (Sigma, St. Louis Mo.) and ^33P ATP (specific activity 0.01 μCi/μL final; Perkin Elmer, Waltham, Mass.) to a final concentration of 10 μM-30 μM to initiate the reaction. […] The percent of enzyme inhibition was calculated based on the percent of remaining kinase activity.

Trk A = Trk A (Homo sapiens, UniProt P04629); test: HotSpot kinase assay: Trk A; assay type: biochemical; conditions: 100 nM compound, read-out: % Enzyme Inhibition @ 100 nM Trk A
Sequence of Trk A (P04629 33-796): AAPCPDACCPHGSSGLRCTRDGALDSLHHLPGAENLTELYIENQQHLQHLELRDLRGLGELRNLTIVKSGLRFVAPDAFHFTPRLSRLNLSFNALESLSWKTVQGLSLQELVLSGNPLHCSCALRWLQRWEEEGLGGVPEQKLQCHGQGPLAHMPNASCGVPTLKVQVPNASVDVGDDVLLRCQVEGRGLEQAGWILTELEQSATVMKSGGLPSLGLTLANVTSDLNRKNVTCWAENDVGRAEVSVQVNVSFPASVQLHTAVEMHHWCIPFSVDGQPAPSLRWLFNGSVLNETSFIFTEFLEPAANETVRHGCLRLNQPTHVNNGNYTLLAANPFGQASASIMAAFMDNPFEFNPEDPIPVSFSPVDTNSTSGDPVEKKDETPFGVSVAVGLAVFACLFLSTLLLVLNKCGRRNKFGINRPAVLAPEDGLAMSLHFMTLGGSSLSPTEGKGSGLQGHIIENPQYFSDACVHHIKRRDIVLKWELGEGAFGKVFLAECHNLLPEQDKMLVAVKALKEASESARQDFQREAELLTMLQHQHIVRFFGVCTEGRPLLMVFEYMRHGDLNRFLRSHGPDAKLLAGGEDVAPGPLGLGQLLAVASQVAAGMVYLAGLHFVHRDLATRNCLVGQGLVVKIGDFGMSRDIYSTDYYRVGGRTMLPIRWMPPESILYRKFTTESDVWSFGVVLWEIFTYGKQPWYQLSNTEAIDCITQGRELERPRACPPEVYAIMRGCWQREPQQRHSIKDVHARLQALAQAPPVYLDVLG
Description: as §1, with “of 3” for “of 4”, “kinases: Trk A; Trk B;” for “kinases: AXL; c-Met; c-Mer;”, “0.1 μM” for “0.1 M”, “the 3” for “the 4”, “Software). […]” for “Software).”
The screening was performed using the “HotSpot” assay platform. The assay measures the conversion of a peptide substrate to ^33P-labelled phosphorylated product. Briefly, specific kinase/substrate pairs along with required cofactors were prepared in reaction buffer. Specifically, the substrate was prepared in reaction buffer (20 mM Hepes, pH 7.5; 10 mM MgCl2; 1 mM EGTA; 0.02% Brij35; 0.02 mg/mL BSA; 0.1 mM Na3VO4; 2 mM DTT; 1% DMSO), followed by delivery of any required cofactor to the resulting substrate solution. The corresponding kinase was delivered into the substrate solution and the reaction mixture was mixed gently. Compound was delivered into the reaction mixture, followed 15-20 minutes later by addition of a mixture of ATP (Sigma, St. Louis Mo.) and ^33P ATP (specific activity 0.01 μCi/μL final; Perkin Elmer, Waltham, Mass.) to a final concentration of 10 μM-30 μM to initiate the reaction. Reactions were carried out at room temperature for 120 minutes, followed by spotting of the reactions onto P81 ion exchange filter paper (Whatman #3698-915; Whatman Inc., Piscataway, N.J.). Unbound phosphate was removed by extensive washing of filters in 0.75% phosphoric acid. […] The percent of enzyme inhibition was calculated based on the percent of remaining kinase activity.

inhibition at 0.1 µM (AXL): < 39%
inhibition at 0.1 µM (Trk A): < 39%
SMILES: CC(C)c1cc(Nc2nc(N3CCCC3C(=O)N(C)C)nc3c2CCC3)n[nH]1 (single isomer, unassigned) [Compound 20b, 1-(4-(5-isopropyl-1H-pyrazol-3-ylamino)-6,7-dihydro-5H-cyclopenta[d]pyrimidin-2-yl)-N,N-dimethylpyrrolidine-2-carboxamide]
